Reference: ChEMBL document CHEMBL4414645, “Development of Robust 17(R),18(S)-Epoxyeicosatetraenoic Acid (17,18-EEQ) Analogues as Potential Clinical Antiarrhythmic Agents” (J Med Chem, 2019)

What was measured:
[1] = Intrinsic clearance in human hepatocytes assessed per million cells at 1 uM measured up to 180 mins by LC-ESI-MS/MS analysis; type: ADME, cell-based, Hepatocyte; details: read-out: CLH
Cytochrome P450 3A4 = Cytochrome P450 3A4 (Homo sapiens, UniProt P08684); assay: Inhibition of recombinant human CYP3A4 expressed in supersomes using 7-benzyloxyquinoline as substrate by fluorescence method; type: ADME
Sequence of Cytochrome P450 3A4 (P08684 whole entry): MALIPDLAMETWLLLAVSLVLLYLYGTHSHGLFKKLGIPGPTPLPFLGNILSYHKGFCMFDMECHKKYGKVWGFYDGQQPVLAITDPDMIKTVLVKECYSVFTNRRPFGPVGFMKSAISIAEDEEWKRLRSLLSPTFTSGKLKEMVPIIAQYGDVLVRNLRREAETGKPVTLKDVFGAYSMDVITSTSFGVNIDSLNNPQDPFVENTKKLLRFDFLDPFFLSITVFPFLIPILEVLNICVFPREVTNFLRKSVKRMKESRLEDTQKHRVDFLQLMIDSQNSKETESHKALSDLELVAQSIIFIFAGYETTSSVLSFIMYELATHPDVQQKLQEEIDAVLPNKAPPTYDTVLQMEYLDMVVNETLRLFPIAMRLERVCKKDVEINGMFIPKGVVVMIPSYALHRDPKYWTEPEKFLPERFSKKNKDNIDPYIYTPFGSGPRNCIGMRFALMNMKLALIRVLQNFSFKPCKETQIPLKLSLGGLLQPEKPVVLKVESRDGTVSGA

[2] = Protein binding in human plasma at 10 uM incubated for 60 mins by LC-ESI-MS/MS analysis; type: ADME, cell-free; details: read-out: PPB (converted)
[3] = Half life in human hepatocytes at 1 uM measured up to 180 mins by LC-ESI-MS/MS analysis; type: ADME, cell-based, Hepatocyte
[4] = Negative chronotropic activity in Wistar rat neonatal cardiomyocytes assessed as changes to basal beating rate after 7 mins by inverted microscopic method; type: functional
[5] = n-Octanol-Tris/phosphoric acid buffer buffer distribution coefficient, log D of the compound at pH 7.4 shaken for 30 mins and measured after 24 hrs by UV-HPLC method; type: physicochemical
[6] = molecular target: T1, Bifunctional epoxide hydrolase 2 (Homo sapiens) (UniProt P34913); assay: Inhibition of N-terminal His-tagged recombinant human soluble epoxide hydrolase (2 to 555 residues) expressed in Sf21 insect cells at 10 uM using as 14,15-EET as substrate after 10 mins by reversed-phase HPLC assay relative to control
T1 sequence (whole entry): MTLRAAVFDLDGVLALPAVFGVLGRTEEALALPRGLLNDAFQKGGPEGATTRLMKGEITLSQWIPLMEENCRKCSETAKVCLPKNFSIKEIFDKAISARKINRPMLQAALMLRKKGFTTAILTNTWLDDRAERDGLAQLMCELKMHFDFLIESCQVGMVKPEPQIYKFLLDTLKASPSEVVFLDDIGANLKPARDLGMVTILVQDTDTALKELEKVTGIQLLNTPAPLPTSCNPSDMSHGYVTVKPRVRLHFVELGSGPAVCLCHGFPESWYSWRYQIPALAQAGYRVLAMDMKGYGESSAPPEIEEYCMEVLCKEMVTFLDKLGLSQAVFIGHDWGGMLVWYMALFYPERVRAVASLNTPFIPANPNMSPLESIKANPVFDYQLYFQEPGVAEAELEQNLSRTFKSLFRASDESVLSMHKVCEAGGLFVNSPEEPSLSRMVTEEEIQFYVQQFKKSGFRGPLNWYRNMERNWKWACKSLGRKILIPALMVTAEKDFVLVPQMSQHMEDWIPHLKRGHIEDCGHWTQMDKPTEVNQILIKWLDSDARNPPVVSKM

Cytochrome P450 1A2 = molecular target: T2, Cytochrome P450 1A2 (Homo sapiens, UniProt P05177); assay: Inhibition of human CYP1A2 by fluorescence method; type: ADME
T2 sequence (P05177 whole entry): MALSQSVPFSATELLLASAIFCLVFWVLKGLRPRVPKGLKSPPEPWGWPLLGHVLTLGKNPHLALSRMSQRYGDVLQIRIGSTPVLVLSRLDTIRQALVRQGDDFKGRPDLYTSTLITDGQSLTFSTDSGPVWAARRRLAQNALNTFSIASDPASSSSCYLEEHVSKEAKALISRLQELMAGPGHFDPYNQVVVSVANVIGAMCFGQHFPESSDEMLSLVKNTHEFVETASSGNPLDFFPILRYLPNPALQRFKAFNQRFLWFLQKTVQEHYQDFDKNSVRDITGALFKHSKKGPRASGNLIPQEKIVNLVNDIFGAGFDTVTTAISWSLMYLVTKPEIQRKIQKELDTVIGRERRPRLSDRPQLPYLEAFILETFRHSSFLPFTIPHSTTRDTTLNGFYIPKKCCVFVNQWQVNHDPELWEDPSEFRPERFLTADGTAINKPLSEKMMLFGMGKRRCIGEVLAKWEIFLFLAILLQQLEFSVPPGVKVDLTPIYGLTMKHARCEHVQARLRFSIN

Cytochrome P450 2B6 = molecular target: T3, Cytochrome P450 2B6 (Homo sapiens, UniProt P20813); assay: Inhibition of human CYP2B6 by fluorescence method; type: ADME
T3 sequence (P20813 whole entry): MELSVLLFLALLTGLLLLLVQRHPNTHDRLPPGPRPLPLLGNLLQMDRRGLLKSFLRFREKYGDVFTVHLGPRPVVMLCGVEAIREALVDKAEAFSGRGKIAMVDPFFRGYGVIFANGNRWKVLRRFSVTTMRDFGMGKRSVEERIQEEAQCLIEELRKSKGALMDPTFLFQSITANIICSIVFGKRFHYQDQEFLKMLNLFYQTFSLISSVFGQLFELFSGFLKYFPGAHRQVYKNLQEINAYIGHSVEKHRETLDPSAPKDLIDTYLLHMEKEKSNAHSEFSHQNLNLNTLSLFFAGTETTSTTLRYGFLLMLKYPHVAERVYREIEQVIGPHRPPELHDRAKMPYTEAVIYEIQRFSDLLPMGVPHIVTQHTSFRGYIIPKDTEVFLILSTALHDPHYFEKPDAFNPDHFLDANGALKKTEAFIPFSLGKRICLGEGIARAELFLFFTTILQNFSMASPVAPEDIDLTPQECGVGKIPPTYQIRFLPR

[7] = Apparent permeability across basolateral to apical side in human Caco2 cells at 10 uM after 15 to 90 mins by LC-ESI-MS/MS analysis; type: ADME, cell-based; details: Caco-2
[8] = Oral bioavailability in Sprague-Dawley (RjHan:SD) rat at 3 mg/kg administered via gavage by LC-MS analysis; type: ADME, organism-based; details: in vivo
[9] = Negative chronotropic activity in Wistar rat neonatal cardiomyocytes assessed as change in basal beating rate after 7 mins by inverted microscopic method; type: functional
[10] = Elimination half life in Sprague-Dawley (RjHan:SD) rat at 3 mg/kg, po administered via gavage by LC-MS analysis; type: ADME, organism-based; details: in vivo, read-out: beta t1/2 (converted)

In the case of `CNC(=O)C(=O)NCCCC/C=C\CCCCCCCCCC(=O)O`, the hepatocyte CLint at 1 µM [1] is reported as 16.5 µL/min/1e6 cells, the IC50 (Cytochrome P450 3A4) is reported as over 50 µM and the fraction unbound at 1 h, 10 µM [2] is reported as 0.0009. The half-life at 1 µM [3] was 0.874 h, the Emax [4] was 38.2 bpm and the logD [5] was 2.01. For the same compound, the inhibition [6] was -8.3%, the IC50 (Cytochrome P450 1A2) was over 50 µM and the IC50 (Cytochrome P450 2B6) was over 50 µM. For the same compound, the Papp B→A at 10 µM [7] was 2.3 ×10⁻⁶ cm/s.
Compound `CNC(=O)C(=O)NCCCC/C=C\CCCCCCCOCC(=O)O` has a bioavailability [8] of 100%, a hepatocyte CLint at 1 µM [1] of 2.48 µL/min/1e6 cells and an IC50 (Cytochrome P450 3A4) of over 50 µM. The fraction unbound at 1 h, 10 µM [2] was 0.0063, the half-life at 1 µM [3] was 5.83 h and the Emax [4] was 36.7 bpm. The logD [5] was -0.03, the Activity [9] was -33.6 bpm and the inhibition [6] was 0.8%. The IC50 (Cytochrome P450 1A2) was over 50 µM, the IC50 (Cytochrome P450 2B6) was over 50 µM and the half-life [10] was 9.6 h. The Papp B→A at 10 µM [7] was 15.8 ×10⁻⁶ cm/s.
Compound `CNC(=O)C(=O)NCCCC/C=C\CCCCCCCCCc1nnn[nH]1` has a bioavailability [8] of 35%, a hepatocyte CLint at 1 µM [1] of 4.77 µL/min/1e6 cells and an IC50 (Cytochrome P450 3A4) of 4.7 µM. The fraction unbound at 1 h, 10 µM [2] was 0.0003, the half-life at 1 µM [3] was 3.02 h and the Emax [4] was 37.1 bpm. The logD [5] was 2.35, the Activity [9] was -30.9 bpm and the inhibition [6] was 1.9%. The IC50 (Cytochrome P450 1A2) was over 50 µM, the IC50 (Cytochrome P450 2B6) was over 50 µM and the half-life [10] was 3.6 h. For the same compound, the Papp B→A at 10 µM [7] was 8 ×10⁻⁶ cm/s.
